PubChem BioAssay (NCI)
Where “and” joins values, the source holds several entries; their conditions need not be identical. Equal entries are not always repeated.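 Grown in 96-well plates, cells were treated for 48 hours with each compound at five concentrations. Insufficient inhibition: endpoint recorded as highest concentration tested. GI50: concentration for 50% inhibition of growth. TGI denotes the concentration required for complete inhibition of growth.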

Legend:
Assay in all cases: NCI anticancer screen, dose series, 48 h
MOLT-4 leukemia = system: MOLT-4 leukemia
KM12 colon = system: KM12 colon
MALME-3M melanoma = system: MALME-3M melanoma
SK-OV-3 ovarian = system: SK-OV-3 ovarian
TK-10 renal = system: TK-10 renal
RPMI-8226 leukemia = system: RPMI-8226 leukemia
SK-MEL-5 melanoma = system: SK-MEL-5 melanoma
SK-MEL-28 melanoma = system: SK-MEL-28 melanoma
MDA-MB-435 = system: MDA-MB-435
SNB-19 CNS = system: SNB-19 CNS

Compound	GI50 (MOLT-4 leukemia)	TGI (MOLT-4 leukemia)	GI50 (KM12 colon)	TGI (KM12 colon)	GI50 (MALME-3M melanoma)	TGI (MALME-3M melanoma)	GI50 (SK-OV-3 ovarian)	TGI (SK-OV-3 ovarian)	GI50 (TK-10 renal)	TGI (TK-10 renal)	GI50 (RPMI-8226 leukemia)	TGI (RPMI-8226 leukemia)	GI50 (SK-MEL-5 melanoma)	TGI (SK-MEL-5 melanoma)	GI50 (SK-MEL-28 melanoma)	TGI (SK-MEL-28 melanoma)	GI50 (MDA-MB-435)	TGI (MDA-MB-435)	GI50 (SNB-19 CNS)	TGI (SNB-19 CNS)
COc1cc(F)c(/C=C/c2cc(/C=C/c3cc(OC)c(OC)cc3F)n(-c3cc(F)cc(F)c3)n2)cc1OC	6.64 µM	> 100 µM	3.3 µM	12.8 µM	1.78 µM	4.06 µM	19.6 µM	41.9 µM	3.63 µM	28.3 µM	3.75 µM	41.4 µM	2.84 µM	9.38 µM	2.36 µM	5.75 µM	2.03 µM	4.63 µM	2.37 µM	5.52 µM
OCC(CCc1c[nH]c2ccccc12)c1c[nH]c2ccccc12 (stereo not drawn)	–	52.1 µM	–	32.5 µM	–	32.2 µM	–	98.5 µM	–	37.8 µM	–	73.5 µM	–	30.4 µM	–	36.6 µM	–	34.3 µM	–	30.5 µM
CCOc1nccc2c1nc(-c1nonc1N)n2CC	> 25 µM	> 25 µM	> 25 µM	> 25 µM	> 25 µM	> 25 µM	> 25 µM	> 25 µM	> 25 µM	> 25 µM	> 25 µM	> 25 µM	> 25 µM	> 25 µM	> 25 µM	> 25 µM	> 25 µM	> 25 µM	> 25 µM	> 25 µM
O=C(N/N=C/c1ccc(Cl)cc1Cl)c1ccc2nc(-c3ccc(Cl)cc3)[nH]c2c1	1.55 µM	4.81 µM	2.03 µM	4.46 µM	1.55 µM	3.15 µM	1.79 µM	4.31 µM	2.06 µM	4.3 µM	1.16 µM	3.51 µM	1.81 µM	3.39 µM	1.58 µM	3.04 µM	1.73 µM	3.35 µM	2.34 µM	5.06 µM
Clc1cc(-c2ccccc2)nc2ccccc12	–	54.6 µM	–	77.5 µM	–	> 100 µM	–	> 100 µM	–	71.6 µM	–	59 µM	–	33 µM	–	> 100 µM	–	95.4 µM	–	> 100 µM
COc1cccc(CCC(=O)c2cc3c(N)c(C(=O)Nc4cccc(Cl)c4C)sc3nc2C)c1	0.77 µM	> 100 µM	0.502 µM	> 100 µM	0.469 µM	> 100 µM	1.53 µM	> 75.6 µM	6.46 µM	> 100 µM	0.819 µM	> 100 µM	0.65 µM	11 µM	0.981 µM	> 100 µM	0.197 µM	0.612 µM	0.523 µM	> 100 µM
Nc1cc(S(N)(=O)=O)ccc1SSc1ccc(S(N)(=O)=O)cc1N	–	> 100 µM	–	> 100 µM	–	> 100 µM	–	> 100 µM	–	> 100 µM	–	> 100 µM	–	> 100 µM	–	> 100 µM	–	> 100 µM	–	> 100 µM
O=C(CNc1ccc2c(=S)c3ccccc3[nH]c2c1)Nc1ccccc1-c1ccccc1NC(=O)CNc1ccc2c(=S)c3ccccc3[nH]c2c1	–	46.7 µM	–	42.7 µM	–	31.7 µM	–	48.5 µM	–	43.9 µM	–	49.9 µM	–	35.3 µM	–	41.2 µM	–	> 52 µM	–	41 µM
COc1ccc2c(c1)c(-c1ccc(-c3cn(C)c4ccc(OC)cc34)[nH]1)cn2C	4.13 µM	29.7 µM	2.75 µM	9.59 µM	2.64 µM	9.03 µM	3.19 µM	20.9 µM	3.56 µM	10.7 µM	1.28 µM	3.38 µM	4.2 µM	14.4 µM	3.18 µM	12.4 µM	4.92 µM	20.6 µM	3.34 µM	14.4 µM
Nc1ccc(C(OC(=O)c2cc3ccccc3c(Cc3c(O)c(C(=O)OC(c4ccc(N)cc4)(c4ccc(N)cc4)c4ccc(N)cc4)cc4ccccc34)c2O)(c2ccc(N)cc2)c2ccc(N)cc2)cc1	4.33 µM	86.1 µM	0.608 µM	12.7 µM	1.94 µM	20.1 µM	2.87 µM	14.5 µM	5.23 µM	21.3 µM	0.476 µM	> 100 µM	0.455 µM	2.3 µM	3.49 µM	16.4 µM	2.5 µM	30.3 µM	0.444 µM	20.7 µM
C[C@@H](COCCC(=O)N1CCN(c2ncc(C(F)(F)F)cn2)CC1)Nc1cn[nH]c(=O)c1C(F)(F)F	22.9 µM	> 100 µM	> 100 µM	> 100 µM	> 100 µM	> 100 µM	53 µM	> 100 µM	> 100 µM	> 100 µM	31.8 µM	> 100 µM	42.3 µM	> 100 µM	> 100 µM	> 100 µM	> 100 µM	> 100 µM	34.2 µM	> 100 µM
Cn1cnc2c(F)c(Nc3ccc(Br)cc3F)c(C(=O)NOCCO)cc21	> 100 µM	> 100 µM	0.264 µM and 0.445 µM	> 100 µM	0.0136 µM and < 0.01 µM	0.138 µM and 0.0486 µM	> 92 µM	> 100 µM	3.07 µM and 1.34 µM	> 100 µM	> 56.4 µM	> 100 µM	0.787 µM and 0.414 µM	> 100 µM	0.0269 µM and 0.0304 µM	0.321 µM and 0.889 µM	0.0609 µM and 0.0547 µM	> 100 µM	4.37 µM	> 100 µM
CC(C)C[C@H](NC(=O)[C@H](Cc1cccc2ccccc12)NS(=O)(=O)c1cccc2cccnc12)B(O)O	0.000334 µM	0.00228 µM	0.0178 µM	0.114 µM and 0.179 µM	0.000588 µM	0.0175 µM and 0.0208 µM	–	> 33.8 µM	0.036 µM	0.351 µM	0.000296 µM	0.000934 µM	0.00539 µM	0.0714 µM and 0.0206 µM	0.000701 µM	0.0116 µM	0.000241 µM	0.000574 µM	–	> 35.3 µM
